Source: patent publication US11203600B2 (Denali Therapeutics Inc., priority 2017, dated 2021)

Target: GST-hRIPK1 (8-327) (Homo sapiens (Human), UniProt Q13546)
Experiment: Fluorescent Polarization Binding (FP Binding) assay, RIPK1
Conditions: 10 nM GST-hRIPK1 (8-327), 5 nM fluorescent-labeled ligand, RT, 30 min, mean of at least two independent experiments
Summary of the method: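 Compound displacement of 5 nM labelled ligand from 10 nM GST-hRIPK1 (8-327) was read as FP (531/595 nm) after 30 min at RT. Buffer: HEPES pH 7.5, NaCl, MgCl2, CHAPS, DTT, Pluronic; 1% DMSO final. IC50s were averaged over at least two independent runs.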

GST-hRIPK1 (8-327), sequence (Q13546 8-327): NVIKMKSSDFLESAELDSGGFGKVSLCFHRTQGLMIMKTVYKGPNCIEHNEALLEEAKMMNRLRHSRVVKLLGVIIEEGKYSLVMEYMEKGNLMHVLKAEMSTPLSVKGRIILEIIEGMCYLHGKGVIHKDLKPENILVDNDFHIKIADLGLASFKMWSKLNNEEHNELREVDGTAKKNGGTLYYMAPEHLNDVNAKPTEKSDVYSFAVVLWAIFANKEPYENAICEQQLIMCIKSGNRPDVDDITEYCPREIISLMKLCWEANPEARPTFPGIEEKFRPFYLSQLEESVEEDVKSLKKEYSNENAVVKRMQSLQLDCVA

CNc1nc(N2CCC(F)(C(=O)N3CCOc4c(C#N)cncc4C3)CC2)ncc1F [Example 123, 4-[4-fluoro-1-[5-fluoro-4-(methylamino)pyrimidin-2-yl]piperidine-4-carbonyl]-3,5-dihydro-2H-pyrido[3,4-f][1,4]oxazepine-9-carbonitrile]
IC50: 0.1 to 1 µM

N#Cc1cncc2c1OCCN(C(=O)C1(F)CCN(c3ncc(F)c(NC4CC4)n3)CC1)C2 [Example 124, 4-[1-[4-(cyclopropylamino)-5-fluoro-pyrimidin-2-yl]-4-fluoro-piperidine-4-carbonyl]-3,5-dihydro-2H-pyrido[3,4-f][1,4]oxazepine-9-carbonitrile]
IC50: 0.0001 to 0.1 µM

N#Cc1cncc2c1OCCN(C(=O)C1(F)CCN(c3ncc(F)c(OCC(F)F)n3)CC1)C2 [Example 125, 4-[1-[4-(2,2-difluoroethoxy)-5-fluoro-pyrimidin-2-yl]-4-fluoro-piperidine-4-carbonyl]-3,5-dihydro-2H-pyrido[3,4-f][1,4]oxazepine-9-carbonitrile]
IC50: 0.0001 to 0.1 µM

CSc1nc(N2CCC(F)(C(=O)N3CCOc4c(C#N)cncc4C3)CC2)ncc1F [Example 126, 4-[4-fluoro-1-(5-fluoro-4-methylsulfanyl-pyrimidin-2-yl)piperidine-4-carbonyl]-3,5-dihydro-2H-pyrido[3,4-f][1,4]oxazepine-9-carbonitrile]
IC50: 0.0001 to 0.1 µM

CN(C)CCCOc1nc(N2CCC(F)(C(=O)N3CCOc4c(C#N)cncc4C3)CC2)ncc1F [Example 127, 4-[1-[4-[3-(dimethylamino)propoxy]-5-fluoro-pyrimidin-2-yl]-4-fluoro-piperidine-4-carbonyl]-3,5-dihydro-2H-pyrido[3,4-f][1,4]oxazepine-9-carbonitrile]
IC50: 0.1 to 1 µM

COc1nc(N2CCC(F)(C(=O)N3CCOc4c(C#N)cncc4C3)CC2)ncc1Cl [Example 128, 4-[1-(5-chloro-4-methoxy-pyrimidin-2-yl)-4-fluoro-piperidine-4-carbonyl]-3,5-dihydro-2H-pyrido[3,4-f][1,4]oxazepine-9-carbonitrile]
IC50: 0.0001 to 0.1 µM

COc1nc(N2CCC(C(=O)N3CCOc4c(C#N)cncc4C3)CC2)ncc1Cl [Example 129, 4-[1-(5-chloro-4-methoxy-pyrimidin-2-yl)piperidine-4-carbonyl]-3,5-dihydro-2H-pyrido[3,4-f][1,4]oxazepine-9-carbonitrile]
IC50: 0.0001 to 0.1 µM

COCCOc1nc(N2CCC(C(=O)N3CCOc4c(F)cncc4C3)CC2)ncc1F [Example 130, (9-fluoro-3,5-dihydro-2H-pyrido[3,4-f][1,4]oxazepin-4-yl)-[1-[5-fluoro-4-(2-methoxyethoxy)pyrimidin-2-yl]-4-piperidyl]methanone]
IC50: 0.0001 to 0.1 µM

N#Cc1cncc2c1OCCN(C(=O)C1CCN(c3ncc(F)c(OCC(F)F)n3)CC1)C2 [Example 131, 4-(1-(4-(2,2-difluoroethoxy)-5-fluoropyrimidin-2-yl)piperidine-4-carbonyl)-2,3,4,5-tetrahydropyrido[3,4-f][1,4]oxazepine-9-carbonitrile]
IC50: 0.0001 to 0.1 µM

COC1(C(=O)N2CCOc3c(F)cncc3C2)CCN(c2ncc(F)c(OCC(F)F)n2)CC1 [Example 132, (1-(4-(2,2-difluoroethoxy)-5-fluoropyrimidin-2-yl)-4-methoxypiperidin-4-yl)(9-fluoro-2,3-dihydropyrido[3,4-f][1,4]oxazepin-4(5H)-yl)methanone]
IC50: 0.0001 to 0.1 µM

N#Cc1cncc2c1OCCN(C(=O)C1CCN(c3nccc(OCC(F)F)n3)CC1)C2 [Example 133, 4-[1-[4-(2,2-difluoroethoxy)pyrimidin-2-yl]piperidine-4-carbonyl]-3,5-dihydro-2H-pyrido[3,4-f][1,4]oxazepine-9-carbonitrile]
IC50: 0.1 to 1 µM

COC1(C(=O)N2CCOc3c(F)cncc3C2)CCN(c2nccc(OCC(F)F)n2)CC1 [Example 134, [1-[4-(2,2-difluoroethoxy)pyrimidin-2-yl]-4-methoxy-4-piperidyl]-(9-fluoro-3,5-dihydro-2H-pyrido[3,4-f][1,4]oxazepin-4-yl)methanone]
IC50: 0.1 to 1 µM

COC1(C(=O)N2CCOc3c(F)cncc3C2)CCN(c2ncccn2)CC1 [Example 135, (9-fluoro-3,5-dihydro-2H-pyrido[3,4-f][1,4]oxazepin-4-yl)-(4-methoxy-1-pyrimidin-2-yl-4-piperidyl)methanone]
IC50: 0.0001 to 0.1 µM

COC1(C(=O)N2CCOc3c(F)cncc3C2)CCN(c2ncc(F)c(OCCN(C)C)n2)CC1 [Example 136]
IC50: > 1 µM

N#Cc1cncc2c1OCCN(C(=O)C1(CF)CCN(c3ncc(F)cn3)CC1)C2 [Example 137, 4-(4-(fluoromethyl)-1-(5-fluoropyrimidin-2-yl)piperidine-4-carbonyl)-2,3,4,5-tetrahydropyrido[3,4-f][1,4]oxazepine-9-carbonitrile]
IC50: 0.1 to 1 µM

CC1(C(=O)N2CCOc3c(C#N)cncc3C2)CC(F)(F)C1 [Example 138, 4-(3,3-difluoro-1-methyl-cyclobutanecarbonyl)-3,5-dihydro-2H-pyrido[3,4-f][1,4]oxazepine-9-carbonitrile]
IC50: 0.1 to 1 µM

N#Cc1cncc2c1OCCN(C(=O)C1(C(F)F)CC1)C2 [Example 139, 4-[1-(difluoromethyl)cyclopropanecarbonyl)-3,5-dihydro-2H-pyrido[3,4-f][1,4]oxazepine-9-carbonitrile]
IC50: > 1 µM

N#Cc1cncc2c1OCCN(C(=O)C1(F)CC1)C2 [Example 140, 4-(1-fluorocyclopropanecarbonyl)-3,5-dihydro-2H-pyrido[3,4-f][1,4]oxazepine-9-carbonitrile]
IC50: > 1 µM

CC(CC(F)(F)F)C(=O)N1CCOc2c(C#N)cncc2C1 (centres unmarked) [Example 141, 4-(4,4,4-trifluoro-2-methyl-butanoyl)-3,5-dihydro-2H-pyrido[3,4-f][1,4]oxazepine-9-carbonitrile]
IC50: 0.1 to 1 µM

CC(F)(F)C(C)(C)C(=O)N1CCOc2c(C#N)cncc2C1 [Example 142, 4-(3,3-difluoro-2,2-dimethyl-butanoyl)-3,5-dihydro-2H-pyrido[3,4-f][1,4]oxazepine-9-carbonitrile]
IC50: 0.0001 to 0.1 µM

N#Cc1cncc2c1OCCN(C(=O)C(F)(F)C(F)(F)C(F)(F)F)C2 [Example 143, 4-(2,2,3,3,4,4,4,-heptafluorobutanoyl)-3,5-dihydro-2H-pyrido[3,4-f][1,4]oxazepine-9-carbonitrile]
IC50: > 1 µM

CC(C)(CF)C(=O)N1CCOc2c(C#N)cncc2C1 [Example 144, 4-(3-fluoro-2,2-dimethyl-propanoyl)-3,5-dihydro-2H-pyrido[3,4-f][1,4]oxazepine-9-carbonitrile]
IC50: 0.0001 to 0.1 µM

CC(C)C(C)(C)C(=O)N1CCOc2c(C#N)cncc2C1 [Example 145, 4-(2,2,3-trimethylbutanoyl)-3,5-dihydro-2H-pyrido[3,4-f][1,4]oxazepine-9-carbonitrile]
IC50: 0.0001 to 0.1 µM

CC(C(=O)N1CCOc2c(C#N)cncc2C1)C1CC1 (centres unmarked) [Example 146, 4-(2-cyclopropylpropanoyl)-3,5-dihydro-2H-pyrido[3,4-f][1,4]oxazepine-9-carbonitrile]
IC50: 0.1 to 1 µM

CC(CF)(CF)C(=O)N1CCOc2c(C#N)cncc2C1 [Example 147, 4-[3-fluoro-2-(fluoromethyl)-2-methyl-propanoyl]-3,5-dihydro-2H-pyrido[3,4-f][1,4]oxazepine-9-carbonitrile]
IC50: 0.0001 to 0.1 µM

CSC(C)(C)C(=O)N1CCOc2c(C#N)cncc2C1 [Example 148, 4-(2-methyl-2-methylsulfanyl-propanoyl)-3,5-dihydro-2H-pyrido[3,4-f][1,4]oxazepine-9-carbonitrile]
IC50: 0.0001 to 0.1 µM

CC(C)(CC(F)F)C(=O)N1CCOc2c(C#N)cncc2C1 [Example 149, 4-(4,4-difluoro-2,2-dimethyl-butanoyl)-3,5-dihydro-2H-pyrido[3,4-f][1,4]oxazepine-9-carbonitrile]
IC50: 0.1 to 1 µM

COCC(C)(C)C(=O)N1CCOc2c(C#N)cncc2C1 [Example 150, 4-(3-methoxy-2,2-dimethyl-propanoyl)-3,5-dihydro-2H-pyrido[3,4-f][1,4]oxazepine-9-carbonitrile]
IC50: 0.1 to 1 µM

CCC(C)(CC)C(=O)N1CCOc2c(C#N)cncc2C1 [Example 151, 4-(2-ethyl-2-methyl-butanoyl)-3,5-dihydro-2H-pyrido[3,4-f][1,4]oxazepine-9-carbonitrile]
IC50: 0.0001 to 0.1 µM

CC(C(=O)N1CCOc2c(C#N)cncc2C1)(C(F)(F)F)C(F)(F)F [Example 152, 4-[3,3,3-trifluoro-2-methyl-2-(trifluoromethyl)propanoyl]-3,5-dihydro-2H-pyrido[3,4-f][1,4]oxazepine-9-carbonitrile]
IC50: 0.1 to 1 µM

CCC(C)(OC)C(=O)N1CCOc2c(C#N)cncc2C1 (centres unmarked) [Example 153, 4-(2-methoxy-2-methyl-butanoyl)-3,5-dihydro-2H-pyrido[3,4-f][1,4]oxazepine-9-carbonitrile]
IC50: 0.0001 to 0.1 µM

COC(C)(C(=O)N1CCOc2c(C#N)cncc2C1)C1CC1 (centres unmarked) [Example 154, 4-(2-cyclopropyl-2-methoxy-propanoyl)-3,5-dihydro-2H-pyrido[3,4-f][1,4]oxazepine-9-carbonitrile]
IC50: 0.1 to 1 µM

N#Cc1cncc2c1OCCN(C(=O)C1CCN(c3ncc(F)cn3)CC1)C2 [Example 155, 4-[1-(5-fluoropyrimidin-2-yl)piperidine-4-carbonyl]-3,5-dihydro-2H-pyrido[3,4-f][1,4]oxazepine-9-carbonitrile]
IC50: 0.0001 to 0.1 µM

O=C(C1CCN(c2ncc(F)cn2)CC1)N1CCOc2c(F)cncc2C1 [Example 156, (9-fluoro-3,5-dihydro-2H-pyrido[3,4-f][1,4]oxazepin-4-yl)-[1-(5-fluoropyrimidin-2-yl)-4-piperidyl]methanone]
IC50: 0.0001 to 0.1 µM

N#Cc1cncc2c1OCCN(C(=O)C1(F)CCN(c3ncccn3)CC1)C2 [Example 157, 4-(4-fluoro-1-pyrimidin-2-yl-piperidine-4-carbonyl)-3,5-dihydro-2H-pyrido[3,4-f][1,4]oxazepine-9-carbonitrile]
IC50: 0.0001 to 0.1 µM
